From patent US4105659A, “1,2,3,4,5,6-Hexahydro-2,6-methano-3-benzazocines” (Sterling Drug Inc., priority 1964, dated 1978)
Where a name gives a salt, the structure may show the parent alone. Read-outs that look alike come from different tables or passages of the source.

Legend:
[1] = test system: analgesic effect of meperidine hydrochloride; experiment: Antagonism of meperidine analgesia, modified D'Amour-Smith test; conditions: for ED50: Rattus norvegicus, read-out: dosage of antagonist which reduced the analgesic effect of meperidine by approximately 50 per cent; for dosage of antagonist which reduced the analgesic effect of meperidine by approximately 50 per cent: subcutaneous, rats, lactic acid acid-addition salt, versus 60 mg./kg. meperidine hydrochloride
[2] = test system: analgesic effect of morphine sulfate; experiment: Antagonism of morphine analgesia, modified D'Amour-Smith test; conditions: for dosage of antagonist which reduced the analgesic effect of morphine by approximately 50 per cent: subcutaneous, rats, lactic acid acid-addition salt, versus 15 mg./kg. morphine sulfate; for ED50: Rattus norvegicus, sc, read-out: dosage of antagonist which reduced the analgesic effect of morphine by approximately 50 per cent
[3] = Solubility, pH of solution and precipitation on pH adjustment or dilution; type: physicochemical; conditions: for pH at which a precipitate formed: 1 percent solution, addition of N/10 sodium hydroxide
Description: A. A mixture of 8.7 g. of racemic cis 1,2,3,4,5,6-hexahydro-6,11-dimethyl-8-hydroxy-2,6-methano-3-benzazocine (which is also known as racemic cis 2'-hydroxy-5,9-dimethyl-6,7-benzomorphan), 6.0 g of 1-bromo-3-methyl-2-butene, 5.0 g. of sodium bicarbonate, and 125 ml. of N,N-dimethylformamide was stirred and refluxed for approximately 41/2 hours. The reaction mixture was then filtered, and the solid on the filter was washed with ethanol. The filtrate and the wash liquor were combined, concentrated under reduced pressure, and then extracted with chloroform. The chloroform extract was concentrated under reduced pressure to yield a syrup which weighed 15.8 g. This syrup was dissolved in 120 ml. of diethyl ether and the resulting solution was filtered to remove approximately one-half gram of a brown amorphous solid. The filtrate was extracted with a mixture of 5 ml. of concentrated hydrochloric acid and 20 ml. of water. To the extract there was added 5 ml. of concentrated ammonium hydroxide solution and ice. A pale tan syrup separated from solution and after stirring, this syrup solidified. The resulting pale tan solid was collected and dried; it weighed 10.6 g. After two recrystallizations from a mixture of methyl alcohol and water, with charcoaling, this solid weighed 8.2 g. and melted at 145°-147° C. The product thus obtained was racemic cis 1,2,3,4,5,6-hexahydro-3-(3-methyl-2-butenyl)-6,11-dimethyl-8-hydroxy-2,6-methano-3-benzazocine (Formula II: Y = --CH2 --CH=C(CH3)2; R^3 = --H), having the molecular formula C19 H27 NO. This product was soluble in a mixture of 0.35 ml. of N/2 hydrochloric acid and 0.15 ml. of water to the extent of 10 percent, the pH of the 1 percent solution being 2.80; and when the pH of the 1 percent solution was gradually raised by addition of N/10 sodium hydroxide solution, a precipitate formed at pH 5.4. When the base was converted to the hydrochloride and was then regenerated from this salt it melted at 151°-153° C. The hydrochloride of this base melted at 245°-247° C. (dec.). and the cyclohexylsulfamate of this base melted at 163°-166° C. The base formed a grayish-yellowtannate.
The racemic trans product was converted to its hydrobromide, having the molecular formula C19 H27 NO·HBr, which was obtained as white needles which melted at 240°-241° C.
The dextro trans product was converted to its hydrochloride, having the molecular formula C19 H27 NO·HCl, which was obtained as white crystals which melted at 254°-255° C.
The levo trans product was converted to its hydrochloride, having the molecular formula C19 H27 NO·HCl, which was obtained as white crystals which melted at 254°-255° C. (dec.); this hydrochloride was soluble in water to the extent of 5 percent, the pH of a 1 percent aqueous solution being 5.7, a precipitate being formed when the 1 percent aqueous solution was adjusted to 7.0 by addition of N/10 sodium hydroxide solution.
A. A mixture of 9.25 g. of racemic cis 1,2,3,4,5,6-hexahydro-6-ethyl-11-methyl-8-hydroxy-2,6-methano-3-benzazocine, 6.0 g. of 1-bromo-3-methyl-2-butene, 125 ml. of N,N-dimethylformamide, and 5.0 g. of sodium bicarbonate was stirred and refluxed for approximately 41/2 hours. The reaction mixture was then filtered, and the solid collected on the filter was washed with ethanol. The filtrate and the wash liquor were combined and concentrated under reduced pressure. To the resulting residue there was added 50 ml. of diethyl ether, and the mixture was filtered. Approximately 0.6 g. of solid was collected on the filter, and 8.2 g. of brown solid separated from the filtrate and was collected by filtration. These two crops of solid (8.8 g.) were combined, 25 ml. of methanol was added, and the mixture was boiled. Only a small portion of the solid dissolved. This mixture was mixed with 25 ml. of water and chilled. The mixture was filtered to collect 8.3 g. of pale tan solid which melted at 156°-158° C. […]

[4] = Clinical analgesia in human subjects; type: in vivo; conditions: for dose approximately equivalent to 10 mg. of morphine sulfate as an analgesic: parenterally in humans; for analgesia in human subjects: parenterally
Description: In human subjects, however, the compounds of Formulas I and II are valuable and effective agents for producing analgesia when administered in the general range of about 10 to 500 mg. per 70 kg. of subject weight, the dosage depending of course on the particular compound, the mode of administration, and the like. The following clinical results which were obtained in human subjects are illustrative. For oral administration the free base was used, and for parenteral (usually intramuscular) administration an aqueous solution of the lactate salt was used; the dosages are expressed in each instance in terms of milligrams of base per 70 kilograms of body weight of the human subject.

[5] = ethanol, organic solvent or mixture, read-out: solubility in ethanol
[6] = water, read-out: solubility in water

For `CC(C)=CCN1CC[C@@]2(C)c3cc(O)ccc3C[C@@H]1[C@@H]2C` (relative stereo) [4A (cyclohexylsulfamate), racemic cis 1,2,3,4,5,6-hexahydro-3-(3-methyl-2-butenyl)-6,11-dimethyl-8-hydroxy-2,6-methano-3-benzazocine], which ED50 ([1]; po) is on record?
Its ED50 is 125 mg/kg.

Which “dosage of antagonist which reduced the analgesic effect of morphine by approximately 50 per cent” value [2] does the source give for `CC(C)=CCN1CC[C@]2(C)c3cc(O)ccc3C[C@H]1C2C` (relative stereo) [4D (dextro), cis 1,2,3,4,5,6-hexahydro-3-(3-methyl-2-butenyl)-6,11-dimethyl-8-hydroxy-2,6-methano-3-benzazocine] here?
The value was 21.0 mg/kg.

And the “dosage of antagonist which reduced the analgesic effect of meperidine by approximately 50 per cent” value [1]?
The value was 18.0 mg/kg.

Which “dosage of antagonist which reduced the analgesic effect of morphine by approximately 50 per cent” value [2] does the source give for `CC(C)=CCN1CC[C@]2(C)c3cc(O)ccc3C[C@H]1C2C` (relative stereo) [4D (levo), cis 1,2,3,4,5,6-hexahydro-3-(3-methyl-2-butenyl)-6,11-dimethyl-8-hydroxy-2,6-methano-3-benzazocine] here?
Its value is 4.3 mg/kg.

And the “dosage of antagonist which reduced the analgesic effect of meperidine by approximately 50 per cent” value [1]?
Its value is 1.05 mg/kg.

With `CC(C)=CCN1CC[C@@]2(C)c3cc(O)ccc3C[C@H]1C2C` (relative stereo) [4E (dextro) hydrochloride, trans 1,2,3,4,5,6-hexahydro-3-(3-methyl-2-butenyl)-6,11-dimethyl-8-hydroxy-2,6-methano-3-benzazocine] as the compound, how does the “pH of a 1 percent aqueous solution” value [3] read?
Its value is 5.6.

What about the “pH at which a precipitate formed” value [3] of the same compound?
Its value is > 6.9.

And the solubility in water ([3]; water)?
The solubility in water was 5%.

With `CC(C)=CCN1CC[C@@]2(C)c3cc(O)ccc3C[C@H]1C2C` (relative stereo) [4E (dextro), trans 1,2,3,4,5,6-hexahydro-3-(3-methyl-2-butenyl)-6,11-dimethyl-8-hydroxy-2,6-methano-3-benzazocine] as the compound, how does the “dosage of antagonist which reduced the analgesic effect of meperidine by approximately 50 per cent” value [1] read?
Its value is 13.0 mg/kg.

With `CC(C)=CCN1CC[C@@]2(C)c3cc(O)ccc3C[C@H]1C2C` (relative stereo) [4E (levo) hydrochloride, trans 1,2,3,4,5,6-hexahydro-3-(3-methyl-2-butenyl)-6,11-dimethyl-8-hydroxy-2,6-methano-3-benzazocine] as the compound, how does the “pH of a 1 percent aqueous solution” value [3] read?
Its value is 5.7.

What about the “pH at which a precipitate formed” value [3] of the same compound?
The value was 7.0.

What about the solubility in water ([3]; water) of the same compound?
Its solubility in water is 5%.

With `CC(C)=CCN1CC[C@@]2(C)c3cc(O)ccc3C[C@H]1C2C` (relative stereo) [4E (levo), trans 1,2,3,4,5,6-hexahydro-3-(3-methyl-2-butenyl)-6,11-dimethyl-8-hydroxy-2,6-methano-3-benzazocine] as the compound, how does the “dosage of antagonist which reduced the analgesic effect of meperidine by approximately 50 per cent” value [1] read?
Its value is 0.55 mg/kg.

For `CC(C)=CCN1CC[C@@]2(C)c3cc(O)ccc3C[C@@H]1[C@H]2C` (relative stereo) [4E (racemic) hydrobromide, trans 1,2,3,4,5,6-hexahydro-3-(3-methyl-2-butenyl)-6,11-dimethyl-8-hydroxy-2,6-methano-3-benzazocine], which solubility [3, 5] is on record?
The solubility was 10000 µg/mL.

What about the solubility [3, 6] of the same compound?
Its solubility is < 2500 µg/mL.

Which ED50 ([1]; sc) does the source give for `CC(C)=CCN1CC[C@@]2(C)c3cc(O)ccc3C[C@@H]1[C@H]2C` (relative stereo) [4E (racemic), trans 1,2,3,4,5,6-hexahydro-3-(3-methyl-2-butenyl)-6,11-dimethyl-8-hydroxy-2,6-methano-3-benzazocine] here?
The ED50 was 3.3 mg/kg.

With `C=C(C)CN1CC[C@@]2(C)c3cc(O)ccc3C[C@@H]1[C@@H]2C` (relative stereo) [8A hydrochloride, 1,2,3,4,5,6-Hexahydro-3-(2-methyl-2-propenyl)-6,11-dimethyl-8-hydroxy-2,6-methano-3-benzazocine] as the compound, how does the solubility [3, 5] read?
Its solubility is < 10000 µg/mL.

What about the solubility [3, 6] of the same compound?
Its solubility is < 2500 µg/mL.

Which ED50 [2] does the source give for `C=CCN1CC[C@@]2(CC)c3cc(O)ccc3C[C@@H]1[C@@H]2C` (relative stereo) [Example 1A, racemic cis 1,2,3,4,5,6-hexahydro-3-allyl-6-ethyl-11-methyl-8-hydroxy-2,6-methano-3-benzazocine] here?
The ED50 was 0.044 mg/kg.

What about the “dose approximately equivalent to 10 mg. of morphine sulfate as an analgesic” value [4] of the same compound?
The value was ~5 mg.

And the “analgesia in human subjects” value ([4]; 5 mg./kg. and 10 mg./kg.)?
Its value is “effective and satisfactory analgesia”.

And the ED50 ([1]; sc)?
Its ED50 is 0.049 mg/kg.

Which ED50 ([1]; sc) does the source give for `C=CCN1CC[C@@]2(CC)c3cc(OC(C)=O)ccc3C[C@@H]1[C@@H]2C` (relative stereo) [Example 1B, racemic cis 1,2,3,4,5,6-hexahydro-3-allyl-6-ethyl-11-methyl-8-acetoxy-2,6-methano-3-benzazocine] here?
Its ED50 is 0.027 mg/kg.

Which ED50 [2] does the source give for `CC[C@]12CCN(CC=C(C)C)[C@H](Cc3ccc(O)cc31)[C@@H]2C` (relative stereo) [Example 7A, racemic cis 1,2,3,4,5,6-hexahydro-3-(3-methyl-2-butenyl)-6-ethyl-11-methyl-8-hydroxy-2,6-methano-3-benzazocine] here?
The ED50 was 11.6 mg/kg.

What about the “dose approximately equivalent to 10 mg. of morphine sulfate as an analgesic” value [4] of the same compound?
The value was ~40 mg.

And the “analgesia in human subjects” value ([4]; 10 mg./70 kg. to 80 mg./70 kg.)?
The value was “effective and satisfactory analgesia”.

What about the solubility ([3]; dilute hydrochloric acid, mixture of 0.34 ml. of N/2 hydrochloric acid and 19.66 ml. of water, read-out: solubility in dilute hydrochloric acid) of the same compound?
Its solubility is < 2500 µg/mL.

What about the solubility [3, 5] of the same compound?
Its solubility is < 10000 µg/mL.

What about the ED50 ([1]; sc) of the same compound?
The ED50 was 10.9 mg/kg.

What does the source list for `C=C(C)CN1CC[C@@]2(C)c3cc(O)ccc3C[C@@H]1[C@@H]2C` (relative stereo) [Example 8A, 1,2,3,4,5,6-Hexahydro-3-(2-methyl-2-propenyl)-6,11-dimethyl-8-hydroxy-2,6-methano-3-benzazocine]?
ED50 [2]: 0.19 mg/kg; ED50 ([1]; sc): 0.094 mg/kg

For `CCC12CCN(CC=C(C)C)C(Cc3ccc(O)cc31)C2C` (stereo not drawn) [7D (dextro cis), dextro cis 1,2,3,4,5,6-hexahydro-(3-methyl-2-butenyl)-6-ethyl-11-methyl-8-hydroxy-2,6-methano-3-benzazocine], which “dosage of antagonist which reduced the analgesic effect of meperidine by approximately 50 per cent” value [1] is on record?
Its value is 19.5 mg/kg.

For `CCC12CCN(CC=C(C)C)C(Cc3ccc(O)cc31)C2C` (stereo not drawn) [7D (levo cis), levo cis 1,2,3,4,5,6-hexahydro-(3-methyl-2-butenyl)-6-ethyl-11-methyl-8-hydroxy-2,6-methano-3-benzazocine], which “dosage of antagonist which reduced the analgesic effect of meperidine by approximately 50 per cent” value [1] is on record?
Its value is 3.1 mg/kg.

For “racemic cis 1,2,3,4,5,6-hexahydro-3-(3-methyl-2-butenyl)-6-ethyl-11-methyl-8-cyclopropanecarbonyloxy-2,6-methano-3-benzazocine hydrochloride [Example 7C]”, which “dosage of antagonist which reduced the analgesic effect of meperidine by approximately 50 per cent” value [1] is on record?
The value was 0.0022 mg/kg.
